Results taken from patent US7897397B2, “Cell fusion promoter and utilization of the same” (Kowa Company, Ltd., priority 2004, dated 2011).

Test system: myocardial cell/bone marrow cell co-culture system
Assay: Cell fusion in myocardial cell/bone marrow cell co-culture, fused cells (MF20- and EGFP-positive) counted by flow cytometry
Assay type: cell-based, rat
Excerpt: From a 1- to 2-day-old Wistar-Kyoto rat, the heart was removed, and myocardial cells were isolated therefrom and cultured. Bone marrow mononuclear cells separated from the bone marrow of an EGFP (enhanced green fluorescent protein) transgenic rat were introduced into the myocardial cells, followed by co-culture thereof.
Flow cytometry was used to quantitatively determine the number of these fused cells. The cells were fixed with paraformaldehyde in the same manner as above, then fluorescence-immunostained in a suspended state with primary antibody MF20, a biotin-conjugated anti-mouse antibody as secondary antibody and a streptavidin/PerCP-cye5.5 conjugate as tertiary antibody, and analyzed by flow cytometry. 50,000 cells were analyzed for each analysis. […] The cells in the gate R4 in FIG. 2 (D) were confirmed to be fused cells positive to both MF20 and EGFP.
Then, according to a similar manner to that described above, ATP was added at a concentration of 0 mM (control), 1 mM, 2 mM and 3 mM respectively to the myocardial cell/bone marrow cell co-culture system, and the number of fused cells was examined. Each group at the predetermined concentration of ATP was stained in the same manner as in FIG. 2 and analyzed by flow cytometry. The results are shown in the graphs in FIGS. 3A-D.
The result is shown in the graph in FIG. 4. In FIG. 4, the ratio (%) of the number of fused cells to the total number of cells is shown on the ordinate, and the concentration of ATP (0 mM, 1 mM, 2 mM and 3 mM) is shown on the abscissa. The asterisk (*) in FIG. 4 indicates significance (p<0.05) relative to the control group. As a result, it was confirmed that only about 0.1% fused cells were formed in the control group in the absence of ATP, while about 0.5% fused cells that are about 5-times as much as in the control group were formed in the group to which 1 or 2 mM ATP had been added.
According to the method of Minamino et al. (Minamino T., Gaussin V., DeMayo F. J., et al., Circ. Res. 2001; 88:587-592), the heart was removed from a 1- to 2-day-old Wistar-Kyoto rat and myocardial cells were isolated. […]
Then, the number of the fused cells was quantitatively determined by flow cytometry. After 1 week of co-culture, the cells were treated with trypsin and fixed with paraformaldehyde in the same manner as above, fluorescence-immunostained in a suspended state with primary antibody MF20 (labeled with PerCP-cye5.5 and captured as being positive to FL-3), biotin-conjugated anti-mouse Ig's antibody (BD Pharmingen) as secondary antibody, and streptavidin/PerCP-cye5.5 conjugate (BD Pharmingen) as tertiary antibody, and analyzed by flow cytometry. 50,000 cells were analyzed for each analysis. […]

SMILES: Nc1ncnc2c1ncn2[C@@H]1O[C@H](COP(=O)(O)OP(=O)(O)OP(=O)(O)O)[C@@H](O)[C@H]1O [ATP, adenosine 5′-triphosphate]
- number of the fused cells compared with the control group (in words) (1 mM or 2 mM ATP added, flow cytometry, 50,000 cells analyzed): higher than in the control group
- fused cells relative to the control group (times as much) (1 or 2 mM ATP added vs control in the absence of ATP): about 5 times
- ratio (%) of the number of fused cells to the total number of cells (1 or 2 mM ATP added, 1 week of co-culture, control without ATP about 0.1%): about 0.5%
- ratio of the number of fused cells as compared with the control group (in words) (1 or 2 mM ATP added, p<0.05 relative to the control group): increased significantly
